# According to US20040156782A1, “Methods of using indocyanine green (ICG) dye” (Akorn, Inc., priority 2003, published 2004):
# Experiment: HPLC stability of reconstituted aqueous ICG composition (% label claim over time)
# Type: physicochemical
# Description: The HPLC testing utilized a Supelcosil LC-18-DB, 3 μm, 4.6×150 mm HPLC column and a supelcosil LC-18-DB, 3 μm, 4.6×33 mm guard column. The mobile phase, which consists of 0.1% phosphoric acid (Solvent A) and 100% acetonitrile (Solvent B), was fed to the columns at a flow rate of 1 ml/min, with the mobile phase composition being varied as follows:
# An ICG standard was then prepared by dissolving approximately 5.5 mg of ICG (IC-GREEN™) in 10.0 ml of a diluent comprising acetonitrile and water in a 1:1 ratio. The ICG samples to be measured (IC-GREEN™) were then prepared by diluting each sample in the same diluent (1:1 acetonitrile to water) such that the estimated concentration of ICG in each sample was approximately 0.5 mg/ml. The dilution factor was determined by dividing the final volume of the sample by the volume of the ICG sample aliquot initially added. Then, five 10.0 μL quantities of the ICG standard were injected into the HPLC column and the mean peak area was determined. Next, a series of 10.0 μL injections of the samples was completed, and the mean peak area for each sample was determined. The ICG concentration for each sample was then calculated using the following formula:
# [ICG in mg/ml]=[STD](ASX/ASTD)(DF)
# where [STD] is the ICG concentration of the standard, ASX is the mean peak area of the sample, ASTD is the mean peak area of the standard, and DF is the dilution factor. The relative concentration of ICG present in the sample (wt. % label claim) was then determined by dividing the concentration of the sample by the initial concentration upon dissolution, then multiplying the result by one hundred.
structure (smiles),measurement,setting,value
"CC1(C)C(/C=C/C=C/C=C/C=C2\N(CCCCS(=O)(=O)O)c3ccc4ccccc4c3C2(C)C)=[N+](CCCCS(=O)(=O)[O-])c2ccc3ccccc3c21 [ICG, Indocyanine green]",stability of aqueous compositions having relatively high ICG concentrations relative to relatively low ICG concentrations,,more stable
same,time after reconstitution at which ICG content corresponds to 95 wt. % based on the label claim,5 mg/ml reconstituted aqueous ICG composition,about 18 hours
same,relative concentration (% label claim) of ICG in aqueous ICG composition,for more than ten hours after the lyophilized ICG is reconstituted,above 90 wt. %
